What is called melting point is the temperature of the solid-liquid transition. Molecule `CC(=O)NCCC1CCc2ccn3ncc(C)c3c21` (configuration not stated) showed a melting point of 121 to 122 °C.

As to `CC(C)Oc1ccc(S(=O)(=O)c2c(O)cccc2F)c([N+](=O)[O-])c1`, the melting point was in the range of 117 to 119 °C.

The molecule `CN1C(=O)CN(C(=O)CN)C(c2ccccc2)c2cc(Cl)ccc21` (configuration not stated) had a melting point of 158 to 160 °C.

`Cc1ccc(S(=O)(=O)OCC2Cc3cccc(-c4cccc(C)c4)c3O2)cc1` (configuration not stated) returned a melting point of 81 to 82 °C.

In the case of `O=C1C=CC(OC(=O)c2ccc([N+](=O)[O-])cc2)(c2nc3ccccc3s2)C=C1`, the melting point was found to be 138 °C.

Consider `CC(=O)c1c(C#N)nn(-c2c(Cl)cc(OC(F)(F)F)cc2Cl)c1N`, for which the melting point was 192 to 193 °C.

On to `CCOC(=O)c1c[nH]c2cccc(O)c12`, for which the melting point lay within 151 to 153 °C.

`O=C(c1nc(NNNc2ccccc2)nc(C(=O)c2ccccc2O)n1)c1ccccc1O` displayed a melting point of 170 °C.

Consider `CCOc1cc(F)ccc1N1CCN(Cc2ccc(CNC(C)=O)cc2)CC1`, for which the melting point fell in the range of 108 to 109 °C.

Consider `CCOC(=O)c1cn(C)nc1Nc1ccc(F)cc1[N+](=O)[O-]`, for which the melting point worked out at 162 °C.

In turn, `O=Cc1ccc2c(c1)CCC(C(=O)O)C2` (configuration not stated) returned a melting point of 205 to 212 °C.

As to `CC(C)C(NC(=O)c1ccc(C(=O)NCc2ccc(N)cc2)cc1)C(=O)N1CCCC1C(=O)NC(C(=O)C(F)(F)F)C(C)C` (mixture of isomers), the melting point fell in the range of 90 to 92 °C.

Take `Cc1ccc(C(=O)NCC(O)CO)cc1-n1c(C)cc(OCc2ccccc2CNC(=O)Nc2cc(C(C)(C)C)nn2-c2cccc(OCCO)c2)c(Cl)c1=O` (configuration not stated): the melting point is 158 to 160 °C.

Turning to `CCCc1nc2ccccc2n1CCC1CCN(c2ccccc2-c2nnn[nH]2)CC1`, the melting point was 231 to 233 °C.

As for `COc1cc(-c2ccc(C3C(CCC(O)c4ccc(F)cc4)C(=O)N3c3ccc(F)cc3)cc2)cc(OC)c1OC` (configuration not stated), the melting point came out at 103 °C.

The molecule `COc1ccc(-c2nc(CNC(=O)C3=NNC(=O)CC3)sc2-c2ccc(OC)cc2)cc1` registered a melting point of 174 to 175 °C.

Molecule `Fc1cccc(F)c1-c1ncc(-c2ccc(-c3ccc(OC(F)(F)F)cc3)cc2)cn1` had a melting point of 215 to 216 °C.

On to `CC1c2cc(O)ccc2-c2ccc(O)cc21`, for which the melting point lay within 192 to 196 °C.

Molecule `COc1cccc(-n2ncc(C(=O)O)c2C(N)=O)c1` showed a melting point of 213 to 216 °C.

`CC(=O)c1ccc(CCCOc2c(C)cc(N3CN=C(C(F)(F)F)O3)cc2C)nn1` had a melting point of 86 to 87 °C.

For the molecule `CCOC(=O)c1ccc(NC(=O)c2ccncc2)cc1`, the melting point is 143 to 145 °C.

`ClC(Cl)(Cl)c1nncs1` had a melting point of 58 °C.

In turn, `O=C(c1cc(Cl)ccc1O)c1cc(Cl)cc([N+](=O)[O-])c1O` registered a melting point of 153 °C.

Molecule `CN1C(=O)C(NC(=O)Nc2ccc(F)cc2)N=C(c2ccccc2)c2ccccc21` (configuration not stated) displayed a melting point of 269 to 270 °C.

The molecule `COCCC(=O)Nc1ccc(Cl)c(C2(C)C(=O)N(Cc3ccc(OC)cc3OC)c3ccc(Cl)cc32)c1` (configuration not stated) returned a melting point of 168 °C.

In the case of `COc1ccc(S(=O)(=O)C(C)(Cc2ccc(OCCN3CCCCC3)cc2)C(N)=O)cc1` (configuration not stated), the melting point amounted to 98 °C.

`N#Cc1ccc2ccc3ccccc3c(=O)c2c1` yielded a melting point of 176 to 177 °C.

`COc1csc(Cc2c(C(C)C)cc(C(C)C)c(C(C)O)c2-c2ccc(F)cc2)c1` (single isomer, unassigned; (+)) had a melting point of 140 to 142 °C.

With `Oc1c2c(nn1-c1ccccn1)CCc1cc(-c3ccccc3)ccc1-2`, the melting point was in the range of 133 to 134 °C.

For the molecule `CC(=O)Nc1ccc([N+](=O)[O-])cc1O`, the melting point is over 250 °C.

In the case of `O=c1c2ccccc2sc2ccc(O)cc12`, the melting point is 232 to 241 °C.

In the case of `CCCn1c(COCC)nc2c(N)nc3ccc(OCCNC(=O)N4CCOCC4)cc3c21`, the melting point lay in the range of 203 to 208 °C.
